The NIST ThermoML archive (doi:10.1016/j.jct.2006.09.012)
Where “and” joins values, the source holds several entries; their conditions need not be identical. Identical values can stand only once.

Details: Gas, Buoyancy - hydrostatic balance with magnetic suspension - two sinkers

[He] [helium]
Details | mass density
273.16 K, 31577 kPa | 47.957 kg/m3 and 47.9575 kg/m3
273.16 K, 31578 kPa | 47.9581 kg/m3 and 47.9577 kg/m3
273.16 K, 31775 kPa | 48.2167 kg/m3
273.16 K, 31776 kPa | 48.2177 kg/m3
273.16 K, 31777 kPa | 48.2188 kg/m3
273.16 K, 31778 kPa | 48.22 kg/m3
273.16 K, 31779 kPa | 48.2215 kg/m3
273.16 K, 31780 kPa | 48.2235 kg/m3
273.16 K, 31865 kPa | 48.3344 kg/m3 and 48.3352 kg/m3
273.16 K, 31866 kPa | 48.3358 kg/m3
273.16 K, 31867 kPa | 48.3368 kg/m3 and 48.3375 kg/m3
273.16 K, 32210 kPa | 48.7873 kg/m3
273.16 K, 32211 kPa | 48.788 kg/m3
273.16 K, 32212 kPa | 48.7903 kg/m3 and 48.7886 kg/m3
273.16 K, 32213 kPa | 48.7913 kg/m3
273.16 K, 37198 kPa | 55.185 kg/m3
273.16 K, 37199 kPa | 55.1865 kg/m3
273.16 K, 37200 kPa | 55.1874 kg/m3
273.16 K, 37201 kPa | 55.1885 kg/m3 and 55.1895 kg/m3
273.16 K, 37514 kPa | 55.5816 kg/m3
273.16 K, 37515 kPa | 55.5829 kg/m3
273.16 K, 37517 kPa | 55.5843 kg/m3
273.16 K, 37518 kPa | 55.5858 kg/m3
273.16 K, 37520 kPa | 55.5878 kg/m3
273.16 K, 37531 kPa | 55.6035 kg/m3
273.16 K, 37536 kPa | 55.6095 kg/m3
273.16 K, 37537 kPa | 55.6109 kg/m3
273.16 K, 37539 kPa | 55.6125 kg/m3
273.16 K, 37540 kPa | 55.6136 kg/m3
273.16 K, 38114 kPa | 56.3321 kg/m3 and 56.3327 kg/m3
273.16 K, 38115 kPa | 56.3338 kg/m3
273.16 K, 38116 kPa | 56.335 kg/m3 and 56.3346 kg/m3
293.15 K, 980.1 kPa | 1.6025 kg/m3
293.15 K, 980.2 kPa | 1.6025 kg/m3 and 1.6026 kg/m3
293.15 K, 1731.6 kPa | 2.8204 kg/m3 and 2.8205 kg/m3 and 2.8207 kg/m3
293.15 K, 3908.9 kPa | 6.3007 kg/m3 [middle of 5 runs]
293.15 K, 4006.9 kPa | 6.4542 kg/m3
293.15 K, 4007 kPa | 6.4541 kg/m3 and 6.4543 kg/m3 and 6.4542 kg/m3
293.15 K, 7058 kPa | 11.2086 kg/m3
293.15 K, 7058.1 kPa | 11.2089 kg/m3 and 11.2088 kg/m3
293.15 K, 7058.2 kPa | 11.2089 kg/m3
293.15 K, 7881.3 kPa | 12.4696 kg/m3
293.15 K, 7881.6 kPa | 12.4701 kg/m3
293.15 K, 7882.1 kPa | 12.4707 kg/m3
293.15 K, 7882.6 kPa | 12.4715 kg/m3
293.15 K, 7883 kPa | 12.4722 kg/m3
293.15 K, 10034 kPa | 15.7199 kg/m3
293.15 K, 10035 kPa | 15.7202 kg/m3 and 15.7205 kg/m3
293.15 K, 11762 kPa | 18.2837 kg/m3 [middle of 5 runs]
293.15 K, 14018 kPa | 21.5714 kg/m3 [middle of 8 runs]
293.15 K, 16004 kPa | 24.4152 kg/m3
293.15 K, 16005 kPa | 24.4156 kg/m3 [middle of 4 runs]
293.15 K, 18018 kPa | 27.2473 kg/m3 and 27.2468 kg/m3 and 27.2464 kg/m3
293.15 K, 18019 kPa | 27.2479 kg/m3 [middle of 5 runs]
293.15 K, 19905 kPa | 29.8586 kg/m3 and 29.8588 kg/m3
293.15 K, 19906 kPa | 29.8595 kg/m3 and 29.8599 kg/m3 and 29.8592 kg/m3
293.15 K, 24474 kPa | 36.0124 kg/m3 [middle of 4 runs]
293.15 K, 24475 kPa | 36.0141 kg/m3 and 36.0137 kg/m3
293.15 K, 24476 kPa | 36.0152 kg/m3
293.15 K, 25777 kPa | 37.7285 kg/m3
293.15 K, 25778 kPa | 37.7301 kg/m3 and 37.7298 kg/m3 and 37.7293 kg/m3
293.15 K, 25779 kPa | 37.7309 kg/m3
293.15 K, 29507 kPa | 42.5361 kg/m3
293.15 K, 29508 kPa | 42.5375 kg/m3 and 42.5373 kg/m3
293.15 K, 29509 kPa | 42.5383 kg/m3
293.15 K, 29510 kPa | 42.5393 kg/m3 and 42.5394 kg/m3
293.15 K, 29511 kPa | 42.5405 kg/m3
293.15 K, 31846 kPa | 45.4829 kg/m3
293.15 K, 31847 kPa | 45.4837 kg/m3
293.15 K, 31848 kPa | 45.4862 kg/m3 and 45.4845 kg/m3
293.15 K, 31850 kPa | 45.4879 kg/m3
293.15 K, 38003 kPa | 52.9909 kg/m3
293.15 K, 38004 kPa | 52.9921 kg/m3
293.15 K, 38005 kPa | 52.993 kg/m3
293.15 K, 38006 kPa | 52.9944 kg/m3
293.15 K, 38007 kPa | 52.9958 kg/m3
293.16 K, 10034 kPa | 15.7195 kg/m3
323.15 K, 1780.1 kPa | 2.6324 kg/m3 and 2.6323 kg/m3 and 2.6322 kg/m3
323.15 K, 1780.2 kPa | 2.6323 kg/m3
323.15 K, 3959.1 kPa | 5.7989 kg/m3 and 5.7987 kg/m3
323.15 K, 7974.3 kPa | 11.4834 kg/m3 and 11.4836 kg/m3
323.15 K, 7974.4 kPa | 11.4837 kg/m3 and 11.4836 kg/m3
323.15 K, 11648 kPa | 16.5228 kg/m3 [middle of 5 runs]
323.15 K, 15081 kPa | 21.0997 kg/m3
323.15 K, 15082 kPa | 21.1007 kg/m3 and 21.1001 kg/m3 and 21.1 kg/m3
323.15 K, 19305 kPa | 26.565 kg/m3 and 26.5643 kg/m3 and 26.5647 kg/m3
323.15 K, 19306 kPa | 26.5662 kg/m3 and 26.5653 kg/m3
323.15 K, 25679 kPa | 34.4876 kg/m3 and 34.4883 kg/m3
323.15 K, 25680 kPa | 34.4886 kg/m3 and 34.489 kg/m3 and 34.4895 kg/m3
323.15 K, 31795 kPa | 41.7513 kg/m3 and 41.752 kg/m3
323.15 K, 31796 kPa | 41.7528 kg/m3
323.15 K, 31797 kPa | 41.7536 kg/m3 and 41.7543 kg/m3
323.15 K, 37888 kPa | 48.6852 kg/m3
323.15 K, 37889 kPa | 48.6863 kg/m3
323.15 K, 37890 kPa | 48.6876 kg/m3
323.15 K, 37891 kPa | 48.6888 kg/m3
323.15 K, 37892 kPa | 48.6904 kg/m3
